Test results from ChEMBL document CHEMBL1671859, “bla(IMP-4) in different genetic contexts in Enterobacteriaceae isolates from Australia” (2008).
In brackets after ≈: the same amount, converted by molar mass.

What was measured:
Type in all cases: functional
[1] = system: Citrobacter freundii; assay: Antibacterial activity against Citrobacter freundii isolate Cf1614 harboring IncL/M plasmid and blaIMP-4-qacG2-aacA4-catB3 array by Etest method
[2] = system: Escherichia coli; assay: Antibacterial activity against Escherichia coli isolate Ec221 harboring IncA/C plasmid and blaIMP-4-qacG2-aacA4-catB3 array by Etest method
[3] = system: Klebsiella pneumoniae; assay: Antibacterial activity against Klebsiella pneumoniae isolate Kp266 harboring IncA/C plasmid and blaIMP-4-qacG2-aacA4-catB3 array by Etest method
[4] = system: Klebsiella oxytoca; assay: Antibacterial activity against Klebsiella oxytoca Ko0426 transconjugant harboring IncL/M plasmid and blaIMP-4-qacG2-aacA4-catB3 array by Etest method
[5] = system: Klebsiella pneumoniae; assay: Antibacterial activity against Klebsiella pneumoniae Kp38045 transconjugant harboring IncL/M plasmid and blaIMP-4-qacG2-aacA4-catB3 array by Etest method
[6] = system: Citrobacter youngae; assay: Antibacterial activity against Citrobacter youngae CyB38 transconjugant harboring blaIMP-4-qacG2-aacA4-catB3 array by Etest method
[7] = system: Citrobacter amalonaticus; assay: Antibacterial activity against Citrobacter amalonaticus Ca3927 transconjugant harboring IncL/M plasmid and blaIMP-4-qacG2-aacA4-catB3 array by Etest method
[8] = system: Serratia marcescens; assay: Antibacterial activity against Serratia marcescens Sm265 transconjugant harboring IncA/C plasmid and blaIMP-4-qacG2-aacA4-catB3 array by Etest method
[9] = system: Enterobacter cloacae; assay: Antibacterial activity against Enterobacter cloacae isolate El216 harboring IncA/C plasmid and blaIMP-4-qacG2-aacA4-catB3 array by Etest method
[10] = system: Klebsiella oxytoca; assay: Antibacterial activity against Klebsiella oxytoca isolate Ko0426 harboring IncL/M plasmid and blaIMP-4-qacG2-aacA4-catB3 array by Etest method
[11] = system: Escherichia coli; assay: Antibacterial activity against Escherichia coli isolate Ec211 harboring IncA/C plasmid and blaIMP-4-qacG2-aacA4-catB3 array by Etest method
[12] = system: Enterobacter cloacae; assay: Antibacterial activity against Enterobacter cloacae El3799 transconjugant harboring IncL/M plasmid and blaIMP-4-qacG2-aacA4-catB3 array by Etest method
[13] = system: Klebsiella oxytoca; assay: Antibacterial activity against Klebsiella oxytoca isolate Ko238 harboring IncA/C plasmid and blaIMP-4-qacG2-aacA4-catB3 array by Etest method
[14] = system: Escherichia coli; assay: Antibacterial activity against Escherichia coli Ec158 transconjugant harboring IncA/C plasmid and blaIMP-4-qacG2-aacA4-catB3 array by Etest method
[15] = system: Klebsiella pneumoniae; assay: Antibacterial activity against Klebsiella pneumoniae Kp1239 transconjugant harboring IncL/M plasmid and blaIMP-4-qacG2-aacA4-catB3 array by Etest method
[16] = system: Klebsiella oxytoca; assay: Antibacterial activity against Klebsiella oxytoca Ko1156 transconjugant harboring IncL/M plasmid and blaIMP-4-qacG2-aacA4-catB3 array by Etest method
[17] = system: Citrobacter amalonaticus; assay: Antibacterial activity against Citrobacter amalonaticus isolate Ca3927 harboring IncL/M plasmid and blaIMP-4-qacG2-aacA4-catB3 array by Etest method
[18] = system: Serratia marcescens; assay: Antibacterial activity against Serratia marcescens isolate Sm220 harboring IncA/C plasmid and blaIMP-4-qacG2-aacA4-catB3 array by Etest method
[19] = system: Klebsiella pneumoniae; assay: Antibacterial activity against Klebsiella pneumoniae isolate Kp1239 harboring IncL/M plasmid and blaIMP-4-qacG2-aacA4-catB3 array by Etest method
[20] = system: Morganella morganii; assay: Antibacterial activity against Morganella morganii isolate Mm38009 harboring IncL/M plasmid and blaIMP-4-qacG2-aacA4-catB3 array by Etest method
[21] = system: Klebsiella pneumoniae; assay: Antibacterial activity against Klebsiella pneumoniae isolate Kp38045 harboring IncL/M plasmid and blaIMP-4-qacG2-aacA4-catB3 array by Etest method
[22] = system: Klebsiella pneumoniae; assay: Antibacterial activity against Klebsiella pneumoniae Kp7564 transconjugant harboring IncL/M plasmid and blaIMP-4-qacG2-aacA4-catB3 array by Etest method
[23] = system: Citrobacter youngae; assay: Antibacterial activity against Citrobacter youngae isolate CyB38 harboring blaIMP-4-qacG2-aacA4-catB3 array by Etest method
[24] = system: Klebsiella oxytoca; assay: Antibacterial activity against Klebsiella oxytoca isolate Ko1156 harboring IncL/M plasmid and blaIMP-4-qacG2-aacA4-catB3 array by Etest method
[25] = system: Klebsiella pneumoniae; assay: Antibacterial activity against Klebsiella pneumoniae isolate Kp4614
[26] = system: Klebsiella pneumoniae; assay: Antibacterial activity against Klebsiella pneumoniae isolate Kp7564 harboring IncL/M plasmid and blaIMP-4-qacG2-aacA4-catB3 array by Etest method in presence of clavulanic acid
[27] = system: Enterobacter cloacae; assay: Antibacterial activity against Enterobacter cloacae El1573 transconjugant harboring IncL/M plasmid and blaIMP-4-qacG2-aacA4-catB3 array by Etest method in presence of clavulanic acid
[28] = system: Klebsiella pneumoniae; assay: Antibacterial activity against Klebsiella pneumoniae isolate Kp1945 harboring IncL/M plasmid, blaIMP-4-qacG2-aacA4-catB3 and dfrA12-orfF-aadA2 arrays by Etest method in presence of clavulanic acid
[29] = system: Enterobacter cloacae; assay: Antibacterial activity against Enterobacter cloacae isolate El3799 harboring IncL/M plasmid and blaIMP-4-qacG2-aacA4-catB3 array by Etest method in presence of clavulanic acid
[30] = system: Klebsiella pneumoniae; assay: Antibacterial activity against Klebsiella pneumoniae isolate Kp204 harboring IncA/C plasmid and blaIMP-4-qacG2-aacA4-catB3 array by Etest method in presence of clavulanic acid
[31] = system: Morganella morganii; assay: Antibacterial activity against Morganella morganii isolate Mm38009 harboring IncL/M plasmid and blaIMP-4-qacG2-aacA4-catB3 array by Etest method in presence of clavulanic acid
[32] = system: Citrobacter amalonaticus; assay: Antibacterial activity against Citrobacter amalonaticus Ca38009 transconjugant harboring IncL/M plasmid and blaIMP-4-qacG2-aacA4-catB3 array by Etest method in presence of clavulanic acid
[33] = system: Citrobacter freundii; assay: Antibacterial activity against Citrobacter freundii isolate Cf1614 harboring IncL/M plasmid and blaIMP-4-qacG2-aacA4-catB3 array by Etest method in presence of clavulanic acid
[34] = system: Citrobacter koseri; assay: Antibacterial activity against Citrobacter koseri Ck211 transconjugant harboring IncA/C plasmid and blaIMP-4-qacG2-aacA4-catB3 array by Etest method in presence of clavulanic acid
[35] = system: Escherichia coli; assay: Antibacterial activity against Escherichia coli isolate Ec211 harboring IncA/C plasmid and blaIMP-4-qacG2-aacA4-catB3 array by Etest method in presence of clavulanic acid
[36] = system: Serratia marcescens; assay: Antibacterial activity against Serratia marcescens isolate Sm211 harboring IncA/C plasmid and blaIMP-4-qacG2-aacA4-catB3 array by Etest method in presence of clavulanic acid
[37] = system: Citrobacter amalonaticus; assay: Antibacterial activity against Citrobacter amalonaticus isolate Ca3927 harboring IncL/M plasmid and blaIMP-4-qacG2-aacA4-catB3 array by Etest method in presence of clavulanic acid
[38] = system: Enterobacter cloacae; assay: Antibacterial activity against Enterobacter cloacae isolate El1573 harboring IncL/M plasmid and blaIMP-4-qacG2-aacA4-catB3 array by Etest method in presence of clavulanic acid
[39] = system: Enterobacter cloacae; assay: Antibacterial activity against Enterobacter cloacae isolate El216 harboring IncA/C plasmid and blaIMP-4-qacG2-aacA4-catB3 array by Etest method in presence of clavulanic acid
[40] = system: Enterobacter cloacae; assay: Antibacterial activity against Enterobacter cloacae El3799 transconjugant harboring IncL/M plasmid and blaIMP-4-qacG2-aacA4-catB3 array by Etest method in presence of clavulanic acid

CO/N=C(\C(=O)N[C@@H]1C(=O)N2C(C(=O)O)=C(COC(C)=O)CS[C@H]12)c1csc(N)n1 [CEFOTAXIME] showed an MIC [1] of over 32 µg/mL, an MIC [2] of over 32 µg/mL and an MIC [3] of over 32 µg/mL. The MIC [4] was 32 µg/mL (≈ 70.3 µM), the MIC [5] was 32 µg/mL (≈ 70.3 µM) and the MIC [6] was over 32 µg/mL. It also gave an MIC [7] of 32 µg/mL (≈ 70.3 µM), an MIC [8] of over 32 µg/mL and an MIC [9] of over 32 µg/mL. It also gave an MIC [10] of 32 µg/mL (≈ 70.3 µM), an MIC [11] of over 32 µg/mL and an MIC [12] of 32 µg/mL (≈ 70.3 µM). The MIC [13] was over 32 µg/mL, the MIC [14] was over 32 µg/mL and the MIC [15] was 32 µg/mL (≈ 70.3 µM). The MIC [16] was 16 µg/mL (≈ 35.1 µM), the MIC [17] was over 32 µg/mL and the MIC [18] was over 32 µg/mL. The MIC [19] was over 32 µg/mL, the MIC [20] was 32 µg/mL (≈ 70.3 µM) and the MIC [21] was 32 µg/mL (≈ 70.3 µM). The MIC [22] was 32 µg/mL (≈ 70.3 µM), the MIC [23] was over 32 µg/mL and the MIC [24] was 32 µg/mL (≈ 70.3 µM). For the same compound, the MIC [25] was over 32 µg/mL.

CC1(C)S[C@@H]2[C@H](NC(=O)[C@H](N)c3ccc(O)cc3)C(=O)N2[C@H]1C(=O)O [AMOXICILLIN] was tested, and the MIC [26] was over 16 µg/mL, the MIC [27] was over 16 µg/mL and the MIC [28] was over 16 µg/mL. It also gave an MIC [29] of over 16 µg/mL, an MIC [30] of over 16 µg/mL and an MIC [31] of over 16 µg/mL. The MIC [32] was over 16 µg/mL, the MIC [33] was over 16 µg/mL and the MIC [34] was over 16 µg/mL. The MIC [35] was over 16 µg/mL, the MIC [36] was over 16 µg/mL and the MIC [37] was over 16 µg/mL. The MIC [38] was over 16 µg/mL, the MIC [39] was over 16 µg/mL and the MIC [40] was over 16 µg/mL.
